Measurements as given in US20240238242A1, “EGCG buccal tablet and use thereof” (priority 2023, published 2024).
“And” between values parts separate entries of the source, which are not always exact repeats. Equal entries are not always repeated.

Tests used:
[1] = tested on: SARS-CoV-2 BJ-01 virus; assay: In vitro effect of EGCG on SARS-CoV-2 BJ-01 infection (co-incubation, then Vero-E6 cells); assay type: cell-based; conditions: 2.18 mM EGCG co-incubated 1, 2, 4 and 8 minutes at room temperature; Vero-E6, 48 hours
From the text: In this experimental example, SARS-CoV-2 BJ-01 virus was provided by the Military Veterinary Research Institute, Academy of Military Medical Sciences, Academy of Military Sciences, and its Accession Number at NCBI was MT291831; Vero-E6 cells were provided by the Military Veterinary Research Institute, Academy of Military Medical Sciences, Academy of Military Sciences; and the culture medium was Dulbecco's Modified Eagle Medium, purchased from Thermo Scientific, catalog number: C11995500BT.
The incubation of drug EGCG with SARS-CoV-2 BJ-01 virus in the culture medium was designed according to the time gradient, in which the incubation time was: 1 minute, 2 minutes, 4 minutes, 8 minutes, the EGCG concentration in the incubation system was 1 mg/mL (2.18 mM), and the virus titer in the incubation system was 10^7 TCID50. After incubation, the incubation system was diluted 10 times and used to infect Vero-E6 cells. After 48 hours, the Ct value of the cell supernatant was detected.

[2] = tested on: Coronavirus (hCoV-229E); assay: Inactivation efficiency against coronavirus hCoV-229E strain (residual TCID50 on Huh-7 cells); assay type: cell-based; conditions: for CPE test (virus replication in cell wells): wells 1-10; for average inactivation efficiency against virus: three experiments

O=C(O[C@@H]1Cc2c(O)cc(O)cc2O[C@@H]1c1cc(O)c(O)c(O)c1)c1cc(O)c(O)c(O)c1 [EGCG, Epigallocatechin gallate]
36.90% and 20.57%: inactivation efficiency against the virus ([2]; 0.2 mM EGCG, hCoV-229E virus, 1 minute, single experiment)
+ and −: CPE test (virus replication in the cell wells) ([2]; 0.2 mM EGCG + virus, co-incubated 5 minute, first experiment, dilution factor 10^5, wells 1-10) | CPE test (virus replication in the cell wells) ([2]; 0.2 mM EGCG + virus, co-incubated 5 minute, first experiment, dilution factor 10^6, wells 1-10) | CPE test (virus replication in the cell wells) ([2]; 0.2 mM EGCG + virus, co-incubated 5 minute, second experiment, dilution factor 10^5, wells 1-10) | CPE test (virus replication in the cell wells) ([2]; 0.2 mM EGCG + virus, co-incubated 5 minutes, dilution factor 10^4, wells 1-10, third experiment) | CPE test (virus replication in cell wells) ([2]; 0.2 mM EGCG + virus, hCoV-229E co-incubated 1 minute, second experiment, dilution factor 10^5) | CPE test (virus replication in cell wells) ([2]; 0.2 mM EGCG + virus, hCoV-229E co-incubated 1 minute, third experiment, dilution factor 10^6) | CPE test (virus replication in cell wells) ([2]; 1 mM EGCG + hCoV-229E virus, co-incubated 1 minute, first experiment, dilution factor 10^5) | CPE test (virus replication in the cell wells) ([2]; 1 mM EGCG + virus, co-incubated 5 minute, second experiment, dilution factor 10^5, wells 1-10)
+: CPE test (virus replication in cell wells) ([2]; 0.2 mM EGCG + hCoV-229E virus, co-incubated 1 minute, first experiment, dilution factor 10^1) | CPE test (virus replication in cell wells) ([2]; 0.2 mM EGCG + hCoV-229E virus, co-incubated 1 minute, first experiment, dilution factor 10^2) | CPE test (virus replication in cell wells) ([2]; 0.2 mM EGCG + hCoV-229E virus, co-incubated 1 minute, first experiment, dilution factor 10^3) | CPE test (virus replication in cell wells) ([2]; 0.2 mM EGCG + hCoV-229E virus, co-incubated 1 minute, first experiment, dilution factor 10^4) | CPE test (virus replication in the cell wells) ([2]; 0.2 mM EGCG + virus, co-incubated 5 minute, first experiment, dilution factor 10^1, wells 1-10) | CPE test (virus replication in the cell wells) ([2]; 0.2 mM EGCG + virus, co-incubated 5 minute, first experiment, dilution factor 10^2, wells 1-10) | CPE test (virus replication in the cell wells) ([2]; 0.2 mM EGCG + virus, co-incubated 5 minute, first experiment, dilution factor 10^3, wells 1-10) | CPE test (virus replication in the cell wells) ([2]; 0.2 mM EGCG + virus, co-incubated 5 minute, first experiment, dilution factor 10^4, wells 1-10) | CPE test (virus replication in the cell wells) ([2]; 0.2 mM EGCG + virus, co-incubated 5 minute, second experiment, dilution factor 10^1, wells 1-10) | CPE test (virus replication in the cell wells) ([2]; 0.2 mM EGCG + virus, co-incubated 5 minute, second experiment, dilution factor 10^2, wells 1-10) | CPE test (virus replication in the cell wells) ([2]; 0.2 mM EGCG + virus, co-incubated 5 minute, second experiment, dilution factor 10^3, wells 1-10) | CPE test (virus replication in the cell wells) ([2]; 0.2 mM EGCG + virus, co-incubated 5 minute, second experiment, dilution factor 10^4, wells 1-10) | CPE test (virus replication in the cell wells) ([2]; 0.2 mM EGCG + virus, co-incubated 5 minutes, dilution factor 10^1, wells 1-10, third experiment) | CPE test (virus replication in the cell wells) ([2]; 0.2 mM EGCG + virus, co-incubated 5 minutes, dilution factor 10^2, wells 1-10, third experiment) | CPE test (virus replication in the cell wells) ([2]; 0.2 mM EGCG + virus, co-incubated 5 minutes, dilution factor 10^3, wells 1-10, third experiment) | CPE test (virus replication in the cell wells) ([2]; 0.2 mM EGCG + virus, co-incubated 5 minutes, dilution factor 10^5, wells 1-10, third experiment) | CPE test (virus replication in cell wells) ([2]; 0.2 mM EGCG + virus, hCoV-229E co-incubated 1 minute, second experiment, dilution factor 10^1) | CPE test (virus replication in cell wells) ([2]; 0.2 mM EGCG + virus, hCoV-229E co-incubated 1 minute, second experiment, dilution factor 10^2) | CPE test (virus replication in cell wells) ([2]; 0.2 mM EGCG + virus, hCoV-229E co-incubated 1 minute, second experiment, dilution factor 10^3) | CPE test (virus replication in cell wells) ([2]; 0.2 mM EGCG + virus, hCoV-229E co-incubated 1 minute, second experiment, dilution factor 10^4) | CPE test (virus replication in cell wells) ([2]; 0.2 mM EGCG + virus, hCoV-229E co-incubated 1 minute, third experiment, dilution factor 10^1) | CPE test (virus replication in cell wells) ([2]; 0.2 mM EGCG + virus, hCoV-229E co-incubated 1 minute, third experiment, dilution factor 10^2) | CPE test (virus replication in cell wells) ([2]; 0.2 mM EGCG + virus, hCoV-229E co-incubated 1 minute, third experiment, dilution factor 10^3) | CPE test (virus replication in cell wells) ([2]; 0.2 mM EGCG + virus, hCoV-229E co-incubated 1 minute, third experiment, dilution factor 10^4) | CPE test (virus replication in cell wells) ([2]; 1 mM EGCG + hCoV-229E virus, co-incubated 1 minute, first experiment, dilution factor 10^1) | CPE test (virus replication in cell wells) ([2]; 1 mM EGCG + hCoV-229E virus, co-incubated 1 minute, first experiment, dilution factor 10^2) | CPE test (virus replication in cell wells) ([2]; 1 mM EGCG + hCoV-229E virus, co-incubated 1 minute, first experiment, dilution factor 10^3) | CPE test (virus replication in cell wells) ([2]; 1 mM EGCG + hCoV-229E virus, co-incubated 1 minute, first experiment, dilution factor 10^4) | CPE test (virus replication in the cell wells) ([2]; 1 mM EGCG + virus, co-incubated 5 minute, first experiment, dilution factor 10^1, wells 1-10) | CPE test (virus replication in the cell wells) ([2]; 1 mM EGCG + virus, co-incubated 5 minute, first experiment, dilution factor 10^2, wells 1-10) | CPE test (virus replication in the cell wells) ([2]; 1 mM EGCG + virus, co-incubated 5 minute, first experiment, dilution factor 10^3, wells 1-10) | CPE test (virus replication in the cell wells) ([2]; 1 mM EGCG + virus, co-incubated 5 minute, first experiment, dilution factor 10^4, wells 1-10) | CPE test (virus replication in the cell wells) ([2]; 1 mM EGCG + virus, co-incubated 5 minute, second experiment, dilution factor 10^1, wells 1-10) | CPE test (virus replication in the cell wells) ([2]; 1 mM EGCG + virus, co-incubated 5 minute, second experiment, dilution factor 10^2, wells 1-10) | CPE test (virus replication in the cell wells) ([2]; 1 mM EGCG + virus, co-incubated 5 minute, second experiment, dilution factor 10^3, wells 1-10) | CPE test (virus replication in the cell wells) ([2]; 1 mM EGCG + virus, co-incubated 5 minute, second experiment, dilution factor 10^4, wells 1-10)
significantly reduced: number of live viruses (virus copy number in cell supernatant) [1]
31.46%: average inactivation efficiency against virus ([2]; 0.2 mM EGCG, hCoV-229E virus, 1 minute)
− and +: CPE test (virus replication in cell wells) ([2]; 0.2 mM EGCG + hCoV-229E virus, co-incubated 1 minute, first experiment, dilution factor 10^5) | CPE test (virus replication in the cell wells) ([2]; 0.2 mM EGCG + virus, co-incubated 5 minute, second experiment, dilution factor 10^6, wells 1-10) | CPE test (virus replication in the cell wells) ([2]; 0.2 mM EGCG + virus, co-incubated 5 minutes, dilution factor 10^6, wells 1-10, third experiment) | CPE test (virus replication in cell wells) ([2]; 0.2 mM EGCG + virus, hCoV-229E co-incubated 1 minute, third experiment, dilution factor 10^5) | CPE test (virus replication in the cell wells) ([2]; 1 mM EGCG + virus, co-incubated 5 minute, first experiment, dilution factor 10^5, wells 1-10) | CPE test (virus replication in the cell wells) ([2]; 1 mM EGCG + virus, co-incubated 5 minute, first experiment, dilution factor 10^6, wells 1-10)
−: CPE test (virus replication in cell wells) ([2]; 0.2 mM EGCG + hCoV-229E virus, co-incubated 1 minute, first experiment, dilution factor 10^6) | CPE test (virus replication in cell wells) ([2]; 0.2 mM EGCG + hCoV-229E virus, co-incubated 1 minute, first experiment, dilution factor 10^7) | CPE test (virus replication in cell wells) ([2]; 0.2 mM EGCG + hCoV-229E virus, co-incubated 1 minute, first experiment, dilution factor 10^8) | CPE test (virus replication in the cell wells) ([2]; 0.2 mM EGCG + virus, co-incubated 5 minute, first experiment, dilution factor 10^7, wells 1-10) | CPE test (virus replication in the cell wells) ([2]; 0.2 mM EGCG + virus, co-incubated 5 minute, first experiment, dilution factor 10^8, wells 1-10) | CPE test (virus replication in the cell wells) ([2]; 0.2 mM EGCG + virus, co-incubated 5 minute, second experiment, dilution factor 10^7, wells 1-10) | CPE test (virus replication in the cell wells) ([2]; 0.2 mM EGCG + virus, co-incubated 5 minute, second experiment, dilution factor 10^8, wells 1-10) | CPE test (virus replication in the cell wells) ([2]; 0.2 mM EGCG + virus, co-incubated 5 minutes, dilution factor 10^7, wells 1-10, third experiment) | CPE test (virus replication in the cell wells) ([2]; 0.2 mM EGCG + virus, co-incubated 5 minutes, dilution factor 10^8, wells 1-10, third experiment) | CPE test (virus replication in cell wells) ([2]; 0.2 mM EGCG + virus, hCoV-229E co-incubated 1 minute, second experiment, dilution factor 10^6) | CPE test (virus replication in cell wells) ([2]; 0.2 mM EGCG + virus, hCoV-229E co-incubated 1 minute, second experiment, dilution factor 10^7) | CPE test (virus replication in cell wells) ([2]; 0.2 mM EGCG + virus, hCoV-229E co-incubated 1 minute, second experiment, dilution factor 10^8) | CPE test (virus replication in cell wells) ([2]; 0.2 mM EGCG + virus, hCoV-229E co-incubated 1 minute, third experiment, dilution factor 10^7) | CPE test (virus replication in cell wells) ([2]; 0.2 mM EGCG + virus, hCoV-229E co-incubated 1 minute, third experiment, dilution factor 10^8) | CPE test (virus replication in cell wells) ([2]; 1 mM EGCG + hCoV-229E virus, co-incubated 1 minute, first experiment, dilution factor 10^6) | CPE test (virus replication in cell wells) ([2]; 1 mM EGCG + hCoV-229E virus, co-incubated 1 minute, first experiment, dilution factor 10^7) | CPE test (virus replication in cell wells) ([2]; 1 mM EGCG + hCoV-229E virus, co-incubated 1 minute, first experiment, dilution factor 10^8) | CPE test (virus replication in the cell wells) ([2]; 1 mM EGCG + virus, co-incubated 5 minute, first experiment, dilution factor 10^7, wells 1-10) | CPE test (virus replication in the cell wells) ([2]; 1 mM EGCG + virus, co-incubated 5 minute, first experiment, dilution factor 10^8, wells 1-10) | CPE test (virus replication in the cell wells) ([2]; 1 mM EGCG + virus, co-incubated 5 minute, second experiment, dilution factor 10^6, wells 1-10) | CPE test (virus replication in the cell wells) ([2]; 1 mM EGCG + virus, co-incubated 5 minute, second experiment, dilution factor 10^7, wells 1-10)
13.71%: average inactivation efficiency against virus ([2]; 0.2 mM EGCG, hCoV-229E virus, 5 minutes)
